Experiments:
[1] = weight changes in rat AIA model; assay type: in vivo, rats
Description: FIG. 4 is a graph depicting weight changes in four groups of rat AIA models under different treatment schemes. Vehicle refers to the group of AIA model rats treated with DMSO. Therapeutic refers to the group of AIA model rats treated with pimozide (Sigma-Aldrich) 10 mg/kg in 30% PEG300 solution starting from day 13. Prophylactic refers to the group of AIA model rats treated with pimozide (Sigma-Aldrich) 10 mg/kg in 30% PEG300 solution starting from day 0. Normal refers to the group of rats without AIA model inducement.
Three groups (10 rats in each group) of female rats (age 8 weeks) were subject to AIA model induction and then to different treatment schemes. Specifically, 100 ug mBSA mixed with CFA was injected s.c. to flank near tail, and one dose of B. pertusiss was injected i.p. the next day to boost the immune reaction. The first of the three groups of rats were treated with DMSO (Vehicle). The second of the three groups of rats were treated with pimozide (Sigma-Aldrich) 10 mg/kg of body weight (same unit are used throughout this application) in 30% PEG300 solution via intraperitoneal injection with collagen injection starting from day 7 (Therapeutic). The last of the three groups of rats were treated with pimozide (Sigma-Aldrich) 10 mg/kg in 30% PEG300 solution via intraperitoneal injection either with collagen injection starting from day 0. […]

STAT5 = molecular target: T1, STAT5 (Homo sapiens, UniProt P42229+P51692); design: in Bcr-Abl+ K562 and KU812 cultures; endogenous in cells; host or cells: K562 and KU812 cells; conditions: cited from earlier work
T1 sequence (P42229 1-794): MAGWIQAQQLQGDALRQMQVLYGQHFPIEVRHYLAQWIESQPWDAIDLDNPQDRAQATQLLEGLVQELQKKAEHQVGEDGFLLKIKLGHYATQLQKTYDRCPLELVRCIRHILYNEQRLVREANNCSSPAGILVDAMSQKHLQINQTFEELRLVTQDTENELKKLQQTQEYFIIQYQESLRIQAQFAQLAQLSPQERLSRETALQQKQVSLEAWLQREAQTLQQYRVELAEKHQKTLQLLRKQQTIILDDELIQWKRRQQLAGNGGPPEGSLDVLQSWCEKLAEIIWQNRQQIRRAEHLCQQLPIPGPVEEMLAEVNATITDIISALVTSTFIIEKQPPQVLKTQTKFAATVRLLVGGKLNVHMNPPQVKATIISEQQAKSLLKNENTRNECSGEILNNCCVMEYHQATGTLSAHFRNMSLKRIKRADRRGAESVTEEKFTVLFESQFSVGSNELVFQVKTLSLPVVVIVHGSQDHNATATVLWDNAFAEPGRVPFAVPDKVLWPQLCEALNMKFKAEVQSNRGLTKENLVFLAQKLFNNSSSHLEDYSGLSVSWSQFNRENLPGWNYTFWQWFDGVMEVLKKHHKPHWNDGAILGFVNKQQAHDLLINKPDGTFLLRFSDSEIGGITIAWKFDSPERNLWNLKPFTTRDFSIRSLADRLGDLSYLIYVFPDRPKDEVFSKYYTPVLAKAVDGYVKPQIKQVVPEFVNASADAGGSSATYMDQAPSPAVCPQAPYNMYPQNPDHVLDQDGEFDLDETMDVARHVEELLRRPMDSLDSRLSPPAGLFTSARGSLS
T1 sequence (P51692 1-787): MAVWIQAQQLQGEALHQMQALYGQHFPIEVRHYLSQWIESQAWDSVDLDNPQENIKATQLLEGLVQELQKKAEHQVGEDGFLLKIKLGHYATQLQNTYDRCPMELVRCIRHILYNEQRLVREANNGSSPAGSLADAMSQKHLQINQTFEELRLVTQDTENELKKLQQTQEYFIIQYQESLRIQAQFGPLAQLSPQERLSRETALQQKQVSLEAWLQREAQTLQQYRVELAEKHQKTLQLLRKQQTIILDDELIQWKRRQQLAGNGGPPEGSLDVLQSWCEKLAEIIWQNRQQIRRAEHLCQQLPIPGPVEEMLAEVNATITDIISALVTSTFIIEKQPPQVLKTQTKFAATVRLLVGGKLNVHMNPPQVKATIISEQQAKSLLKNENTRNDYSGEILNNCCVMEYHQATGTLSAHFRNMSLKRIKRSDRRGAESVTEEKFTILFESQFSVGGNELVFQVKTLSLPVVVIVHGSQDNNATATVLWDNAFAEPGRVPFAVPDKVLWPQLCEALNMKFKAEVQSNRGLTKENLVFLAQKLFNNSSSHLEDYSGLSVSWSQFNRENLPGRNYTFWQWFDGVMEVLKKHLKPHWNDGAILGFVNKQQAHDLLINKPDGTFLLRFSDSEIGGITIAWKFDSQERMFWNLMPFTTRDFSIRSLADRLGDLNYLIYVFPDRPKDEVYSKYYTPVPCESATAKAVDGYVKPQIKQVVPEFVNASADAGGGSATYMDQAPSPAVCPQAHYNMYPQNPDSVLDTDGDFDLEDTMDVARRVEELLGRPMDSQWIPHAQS

For `O=c1[nH]c2ccccc2n1C1CCN(CCCC(c2ccc(F)cc2)c2ccc(F)cc2)CC1` [pimozide, 1-[1-[4,4-bis(4-fluorophenyl)butyl]-4-piperidinyl]-1,3-dihydro-2H-benzimidazole-2-one], the “weight changes vs Vehicle” value ([1]; Prophylactic group, 10 mg/kg i.p. from day 0, at each time point) is given as “No significant difference”, the “weight changes vs Vehicle” value ([1]; Therapeutic group, 10 mg/kg i.p., at each time point) is given as “No significant difference” and the STAT5 transcription activity (STAT5; 5 μM for 18 h, Bcr-Abl+ K562 and KU812 cultures) is given as “inhibits”. The “expression of STAT5 target genes” value (STAT5; CML cell lines) was “decreased”.

Reference: patent US11612595B2, “Compositions and methods for treating rheumatoid arthritis” (Generos Biopharma Ltd., priority 2017, dated 2023)
